According to ChEMBL document CHEMBL2073974, “Identification of a novel gene family encoding human liver-specific organic anion transporter LST-1” (J Biol Chem, 1999):

T1: Solute carrier organic anion transporter family member 1B1 (Homo sapiens, UniProt Q9Y6L6)
T1 sequence (Q9Y6L6 whole entry): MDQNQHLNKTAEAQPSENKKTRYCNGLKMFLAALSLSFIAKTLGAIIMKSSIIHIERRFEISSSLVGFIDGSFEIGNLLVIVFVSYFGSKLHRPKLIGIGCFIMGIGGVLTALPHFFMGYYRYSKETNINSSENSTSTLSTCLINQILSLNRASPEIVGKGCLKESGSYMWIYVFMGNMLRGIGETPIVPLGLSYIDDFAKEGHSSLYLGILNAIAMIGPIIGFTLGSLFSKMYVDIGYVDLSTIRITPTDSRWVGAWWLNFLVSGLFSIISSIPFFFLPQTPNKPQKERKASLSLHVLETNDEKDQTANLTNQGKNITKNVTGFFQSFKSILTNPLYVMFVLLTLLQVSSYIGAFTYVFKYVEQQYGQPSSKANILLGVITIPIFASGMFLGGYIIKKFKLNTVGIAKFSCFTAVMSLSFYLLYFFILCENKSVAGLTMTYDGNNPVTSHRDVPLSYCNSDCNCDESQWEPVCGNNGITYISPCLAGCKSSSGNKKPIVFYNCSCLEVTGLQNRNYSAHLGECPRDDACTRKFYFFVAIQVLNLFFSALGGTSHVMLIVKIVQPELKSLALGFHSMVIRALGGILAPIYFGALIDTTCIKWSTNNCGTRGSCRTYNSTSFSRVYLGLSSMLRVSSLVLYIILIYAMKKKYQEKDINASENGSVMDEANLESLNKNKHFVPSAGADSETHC

B1: Solute carrier organic anion transporter family member 1B1 (Homo sapiens) (protein)
chain: T1 sequence (Q9Y6L6 whole entry)

Assays:
[1] = target: T1, Solute carrier organic anion transporter family member 1B1; test: (§1) TP_TRANSPORTER: uptake in Xenopus laevis oocytes; assay type: functional, cell-based; conditions: oocyte
[2] = substrate: N[C@@H](Cc1cc(I)c(Oc2cc(I)c(O)c(I)c2)c(I)c1)C(=O)O; test: as §1; assay type: functional, cell-based, Oocyte
[3] = substrate: N[C@@H](Cc1cc(I)c(Oc2ccc(O)c(I)c2)c(I)c1)C(=O)O; test: as §1; assay type: functional, cell-based, Oocyte

Molecule | Activity [1] | Km [2] | Km [3]
CCCCC[C@H](O)/C=C/[C@H]1[C@H](O)CC(=O)[C@@H]1C/C=C\CCCC(=O)O [DINOPROSTONE] | substrate [+] |  | 
C[C@]12CC[C@@H]3c4ccc(O)cc4CC[C@H]3[C@@H]1CC[C@@H]2O[C@@H]1O[C@H](C(=O)O)[C@@H](O)[C@H](O)[C@H]1O [ESTRADIOL 17B GLUCURONIDE] | substrate [+] |  | 
CCCCC/C=C\C\C=C/C=C/C=C/[C@@H](SC[C@@H](NC(=O)CC[C@H](N)C(=O)O)C(=O)NCC(=O)O)[C@@H](O)CCCC(=O)O [LEUKOTRIEN C4] | substrate [+] |  | 
CCCCC/C=C\C\C=C/C=C/C=C/[C@@H](SC[C@H](N)C(=O)O)[C@@H](O)CCCC(=O)O [LEUKOTRIEN E4] | substrate [+] |  | 
C[C@]12CC[C@H](OS(=O)(=O)O)CC1=CC[C@@H]1[C@@H]2CC[C@]2(C)C(=O)CC[C@@H]12 [PRASTERONE SULFURIC ACID] | substrate [+] |  | 
CCCCC[C@H](O)/C=C/[C@H]1OC(O)C[C@H](O)[C@@H]1C/C=C\CCCC(=O)O (stereo partly drawn) [THROMBOXANE B2] | substrate [+] |  | 
B1 |  | 3 µM | 2.7 µM
